Consider two compounds from ChEMBL document CHEMBL4507288 (2021).

Assay [1] has as its target Sodium-dependent dopamine transporter (Homo sapiens, UniProt Q01959). In words: GPCRScan assay: inhibition of DAT. Details: radioligand conc. used [nm] 3.6 – 16.0, parental cells stable HEK.
Assay [2] has as its target Beta-1 adrenergic receptor (Homo sapiens) (UniProt P08588). Conditions: Compound concentration 10.0 uM.
The subject of assay [3] is Tyrosine-protein kinase ABL1 (Homo sapiens), P00519 [E255K]. The note with it: Compound concentration 1000.0 nM.
Assay [4] concerns Tyrosine-protein kinase ABL1 (Homo sapiens), P00519 [F317I]. Conditions: Compound concentration 1000.0 nM.
Assay [5] deals with Tyrosine-protein kinase ABL1 (Homo sapiens), P00519 [F317L]. Conditions: Compound concentration 1000.0 nM.
Assay [6] deals with Tyrosine-protein kinase ABL2 (Homo sapiens) (UniProt P42684). The note with it: Compound concentration 1000.0 nM.
Sequence of Tyrosine-protein kinase ABL2 (Homo sapiens) (P42684 whole entry): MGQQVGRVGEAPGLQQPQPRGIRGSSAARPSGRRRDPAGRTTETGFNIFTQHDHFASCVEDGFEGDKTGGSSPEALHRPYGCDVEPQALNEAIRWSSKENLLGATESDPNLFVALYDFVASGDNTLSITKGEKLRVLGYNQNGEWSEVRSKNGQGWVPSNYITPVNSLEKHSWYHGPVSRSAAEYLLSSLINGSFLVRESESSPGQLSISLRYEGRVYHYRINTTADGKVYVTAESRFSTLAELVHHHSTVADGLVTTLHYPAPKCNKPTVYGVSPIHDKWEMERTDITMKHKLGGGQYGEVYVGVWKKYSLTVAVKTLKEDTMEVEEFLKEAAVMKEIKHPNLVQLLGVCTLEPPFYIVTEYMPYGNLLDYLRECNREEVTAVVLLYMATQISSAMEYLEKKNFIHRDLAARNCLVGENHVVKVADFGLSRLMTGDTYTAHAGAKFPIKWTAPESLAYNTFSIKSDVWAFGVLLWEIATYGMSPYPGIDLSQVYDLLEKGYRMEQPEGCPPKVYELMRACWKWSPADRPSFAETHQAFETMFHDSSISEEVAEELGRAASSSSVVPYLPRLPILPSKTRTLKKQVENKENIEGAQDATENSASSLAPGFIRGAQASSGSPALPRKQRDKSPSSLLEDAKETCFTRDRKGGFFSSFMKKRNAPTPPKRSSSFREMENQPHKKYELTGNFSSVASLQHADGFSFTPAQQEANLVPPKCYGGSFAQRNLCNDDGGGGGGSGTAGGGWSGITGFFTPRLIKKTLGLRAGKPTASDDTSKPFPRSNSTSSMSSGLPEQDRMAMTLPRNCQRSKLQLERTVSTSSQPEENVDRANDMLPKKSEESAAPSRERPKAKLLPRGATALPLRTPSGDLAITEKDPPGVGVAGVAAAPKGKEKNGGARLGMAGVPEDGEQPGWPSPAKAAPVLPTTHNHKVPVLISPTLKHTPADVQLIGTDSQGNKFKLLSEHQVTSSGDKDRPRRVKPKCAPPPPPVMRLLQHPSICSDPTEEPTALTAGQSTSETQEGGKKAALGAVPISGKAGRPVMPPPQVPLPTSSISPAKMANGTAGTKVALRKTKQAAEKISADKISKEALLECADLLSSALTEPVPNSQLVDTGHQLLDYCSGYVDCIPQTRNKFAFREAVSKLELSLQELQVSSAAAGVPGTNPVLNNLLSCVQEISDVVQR
Assay [7] addresses Activin receptor type-2B (Homo sapiens) (UniProt Q13705). Conditions: Compound concentration 1000.0 nM.
Assay [8] deals with NUAK family SNF1-like kinase 1 (Homo sapiens) (UniProt O60285). Conditions: Compound concentration 1000.0 nM.
The target in assay [9] is Calcium/calmodulin-dependent protein kinase kinase 2 (Homo sapiens) (UniProt Q96RR4). The note with it: Compound concentration 1000.0 nM.
For assay [10], the target named is Peripheral plasma membrane protein CASK (Homo sapiens) (UniProt O14936). The note with it: Compound concentration 1000.0 nM.
Assay [11] deals with Casein kinase I isoform epsilon (Homo sapiens) (UniProt P49674). Conditions: Compound concentration 1000.0 nM.
Sequence of Casein kinase I isoform epsilon (Homo sapiens) (P49674 whole entry, looked up, canonical isoform): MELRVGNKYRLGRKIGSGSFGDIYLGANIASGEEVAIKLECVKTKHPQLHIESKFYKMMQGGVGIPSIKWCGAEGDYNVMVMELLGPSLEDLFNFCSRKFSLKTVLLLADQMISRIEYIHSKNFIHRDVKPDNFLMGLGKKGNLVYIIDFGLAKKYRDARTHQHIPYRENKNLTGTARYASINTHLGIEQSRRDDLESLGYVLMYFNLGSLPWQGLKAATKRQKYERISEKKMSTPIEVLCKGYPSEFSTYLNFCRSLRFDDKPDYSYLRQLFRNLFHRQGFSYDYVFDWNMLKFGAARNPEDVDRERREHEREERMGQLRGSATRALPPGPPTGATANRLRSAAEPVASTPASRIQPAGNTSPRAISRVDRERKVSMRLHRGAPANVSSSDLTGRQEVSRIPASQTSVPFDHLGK
The target of assay [12] is Casein kinase II subunit alpha (Homo sapiens) (UniProt P68400). The note with it: Compound concentration 1000.0 nM.
Assay [13] has as its target Serine/threonine-protein kinase DCLK1 (Homo sapiens) (UniProt O15075). The note with it: Compound concentration 1000.0 nM.
For assay [14], the target named is Serine/threonine-protein kinase 17A (Homo sapiens) (UniProt Q9UEE5). Conditions: Compound concentration 1000.0 nM.
In assay [15] the test system is Epidermal growth factor receptor (Homo sapiens), P00533 [UNDEFINED MUTATION]. The note with it: Compound concentration 1000.0 nM.
Sequence of Epidermal growth factor receptor (Homo sapiens), P00533 [UNDEFINED MUTATION] (P00533 whole entry, looked up, change not shown): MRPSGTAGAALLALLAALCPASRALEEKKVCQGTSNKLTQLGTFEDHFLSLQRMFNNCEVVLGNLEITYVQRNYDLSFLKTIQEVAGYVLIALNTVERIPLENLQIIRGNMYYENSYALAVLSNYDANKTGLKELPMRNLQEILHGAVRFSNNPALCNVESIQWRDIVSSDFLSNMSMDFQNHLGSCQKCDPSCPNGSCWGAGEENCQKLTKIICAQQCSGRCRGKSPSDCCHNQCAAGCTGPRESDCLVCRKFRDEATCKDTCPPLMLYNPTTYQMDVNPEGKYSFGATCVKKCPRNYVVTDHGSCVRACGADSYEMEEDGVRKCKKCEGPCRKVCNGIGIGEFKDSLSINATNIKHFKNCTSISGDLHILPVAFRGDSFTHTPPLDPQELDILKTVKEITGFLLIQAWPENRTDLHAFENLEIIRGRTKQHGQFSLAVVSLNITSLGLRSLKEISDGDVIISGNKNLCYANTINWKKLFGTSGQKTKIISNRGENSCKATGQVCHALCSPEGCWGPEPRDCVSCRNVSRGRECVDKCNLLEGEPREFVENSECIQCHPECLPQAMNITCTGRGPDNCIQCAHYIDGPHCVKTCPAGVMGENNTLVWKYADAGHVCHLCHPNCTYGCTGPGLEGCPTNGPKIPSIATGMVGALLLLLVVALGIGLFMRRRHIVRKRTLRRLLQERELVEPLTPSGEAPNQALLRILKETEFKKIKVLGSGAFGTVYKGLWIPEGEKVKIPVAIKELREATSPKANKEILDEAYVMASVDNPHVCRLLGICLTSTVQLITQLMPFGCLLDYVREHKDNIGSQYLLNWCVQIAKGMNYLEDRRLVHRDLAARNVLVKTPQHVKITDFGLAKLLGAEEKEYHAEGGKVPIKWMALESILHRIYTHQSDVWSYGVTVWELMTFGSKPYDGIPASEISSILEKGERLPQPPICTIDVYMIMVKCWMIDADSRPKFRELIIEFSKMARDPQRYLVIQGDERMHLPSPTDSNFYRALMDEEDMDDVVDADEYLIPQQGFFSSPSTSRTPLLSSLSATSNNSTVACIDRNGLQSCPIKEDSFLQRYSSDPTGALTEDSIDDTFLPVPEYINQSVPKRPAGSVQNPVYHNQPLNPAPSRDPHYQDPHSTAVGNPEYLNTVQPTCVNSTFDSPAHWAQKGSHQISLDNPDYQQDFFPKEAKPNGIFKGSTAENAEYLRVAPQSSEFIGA
Assay [16] shares this test system. Conditions: Compound concentration 1000.0 nM. This is another data set of the same source.
In assay [17] the target is Fibroblast growth factor receptor 1 (Homo sapiens) (UniProt P11362). Conditions: Compound concentration 1000.0 nM.
For assay [18], the target named is Insulin receptor-related protein (Homo sapiens) (UniProt P14616). The note with it: Compound concentration 1000.0 nM.
Assay [19] concerns Mast/stem cell growth factor receptor Kit (Homo sapiens), P10721 [D816V]. The note with it: Compound concentration 1000.0 nM.
For assay [20], the system named is Mast/stem cell growth factor receptor Kit (Homo sapiens), P10721 [V559D]. Conditions: Compound concentration 1000.0 nM.
For assay [21], the target named is LIM domain kinase 1 (Homo sapiens) (UniProt P53667). Conditions: Compound concentration 1000.0 nM.
Assay [22] deals with Mitogen-activated protein kinase kinase kinase 2 (Homo sapiens) (UniProt Q9Y2U5). The note with it: Compound concentration 1000.0 nM.
Assay [23] has as its target Mitogen-activated protein kinase kinase kinase kinase 4 (Homo sapiens) (UniProt O95819). The note with it: Compound concentration 1000.0 nM.
In assay [24] the target is Mitogen-activated protein kinase kinase kinase kinase 5 (Homo sapiens) (UniProt Q9Y4K4). Conditions: Compound concentration 1000.0 nM.
The target of assay [25] is Dual specificity mitogen-activated protein kinase kinase 4 (Homo sapiens) (UniProt P45985). Conditions: Compound concentration 1000.0 nM.
For assay [26], the target named is Hepatocyte growth factor receptor (Homo sapiens) (UniProt P08581). The note with it: Compound concentration 1000.0 nM.
Assay [27] relates to Hepatocyte growth factor receptor (Homo sapiens), P08581 [Y1235D]. Conditions: Compound concentration 1000.0 nM.
Assay [28] has as its target Misshapen-like kinase 1 (Homo sapiens) (UniProt Q8N4C8). The note with it: Compound concentration 1000.0 nM.
Assay [29] concerns the target Mitogen-activated protein kinase kinase kinase 9 (Homo sapiens) (UniProt P80192). Conditions: Compound concentration 1000.0 nM.
For assay [30], the target named is Myosin light chain kinase 2, skeletal/cardiac muscle (Homo sapiens) (UniProt Q9H1R3). Conditions: Compound concentration 1000.0 nM.
The target in assay [31] is Serine/threonine-protein kinase 38-like (Homo sapiens) (UniProt Q9Y2H1). The note with it: Compound concentration 1000.0 nM.
For assay [32], the target named is Serine/threonine-protein kinase PAK 1 (Homo sapiens) (UniProt Q13153). The note with it: Compound concentration 1000.0 nM.
Assay [33] deals with Phosphorylase b kinase gamma catalytic chain, skeletal muscle/heart isoform (Homo sapiens) (UniProt Q16816). Conditions: Compound concentration 1000.0 nM.
Sequence of Phosphorylase b kinase gamma catalytic chain, skeletal muscle/heart isoform (Homo sapiens) (Q16816 whole entry, looked up, canonical isoform): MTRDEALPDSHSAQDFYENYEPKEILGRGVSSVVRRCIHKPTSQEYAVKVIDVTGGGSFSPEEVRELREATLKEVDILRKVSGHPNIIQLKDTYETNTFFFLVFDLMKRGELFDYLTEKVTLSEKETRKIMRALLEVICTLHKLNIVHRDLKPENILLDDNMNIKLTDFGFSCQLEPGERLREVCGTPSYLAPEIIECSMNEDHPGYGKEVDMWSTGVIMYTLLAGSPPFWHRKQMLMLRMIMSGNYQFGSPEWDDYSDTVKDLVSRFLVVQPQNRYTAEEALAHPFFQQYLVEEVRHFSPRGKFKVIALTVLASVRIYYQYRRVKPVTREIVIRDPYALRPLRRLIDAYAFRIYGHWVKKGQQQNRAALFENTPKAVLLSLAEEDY
For assay [34], the system named is Phosphatidylinositol 4,5-bisphosphate 3-kinase catalytic subunit alpha isoform (Homo sapiens), P42336 [E545A]. The note with it: Compound concentration 1000.0 nM.
The target in assay [35] is Membrane-associated tyrosine- and threonine-specific cdc2-inhibitory kinase (Homo sapiens) (UniProt Q99640). Conditions: Compound concentration 1000.0 nM.
Assay [36] has as its target Serine/threonine-protein kinase N2 (Homo sapiens) (UniProt Q16513). The note with it: Compound concentration 1000.0 nM.
Assay [37] concerns the target Serine/threonine-protein kinase PknB (Mycobacterium tuberculosis) (UniProt P9WI81). The note with it: Compound concentration 1000.0 nM.
The target in assay [38] is Ribosomal protein S6 kinase alpha-5 (Homo sapiens) (UniProt O75582). Conditions: Compound concentration 1000.0 nM.
The target of assay [39] is Ribosomal protein S6 kinase beta-1 (Homo sapiens) (UniProt P23443). Conditions: Compound concentration 1000.0 nM.
Sequence of Ribosomal protein S6 kinase beta-1 (Homo sapiens) (P23443 whole entry, looked up): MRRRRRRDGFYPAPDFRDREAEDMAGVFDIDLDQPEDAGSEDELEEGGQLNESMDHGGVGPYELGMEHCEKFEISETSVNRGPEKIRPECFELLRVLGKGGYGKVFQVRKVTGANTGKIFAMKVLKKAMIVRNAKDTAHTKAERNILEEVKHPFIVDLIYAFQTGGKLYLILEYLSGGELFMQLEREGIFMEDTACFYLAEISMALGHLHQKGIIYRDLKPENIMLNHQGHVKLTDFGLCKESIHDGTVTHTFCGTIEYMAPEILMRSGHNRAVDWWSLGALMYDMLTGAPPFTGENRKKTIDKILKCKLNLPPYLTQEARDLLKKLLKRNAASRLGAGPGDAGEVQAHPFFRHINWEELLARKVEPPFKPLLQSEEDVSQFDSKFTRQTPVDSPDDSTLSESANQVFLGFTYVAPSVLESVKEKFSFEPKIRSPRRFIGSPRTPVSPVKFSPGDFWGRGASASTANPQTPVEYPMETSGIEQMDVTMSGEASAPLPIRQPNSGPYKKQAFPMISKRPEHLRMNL
The target in assay [40] is Serine/threonine-protein kinase SBK1 (Homo sapiens) (UniProt Q52WX2). The note with it: Compound concentration 1000.0 nM.
Assay [41] addresses Serine/threonine-protein kinase 33 (Homo sapiens) (UniProt Q9BYT3). Conditions: Compound concentration 1000.0 nM.
For assay [42], the target named is Mitogen-activated protein kinase kinase kinase 7 (Homo sapiens) (UniProt O43318). The note with it: Compound concentration 1000.0 nM.
Assay [43] addresses High affinity nerve growth factor receptor (Homo sapiens) (UniProt P04629). The note with it: Compound concentration 1000.0 nM.
Assay [44] concerns the target BDNF/NT-3 growth factors receptor (Homo sapiens) (UniProt Q16620). Conditions: Compound concentration 1000.0 nM.
In assay [45] the target is NT-3 growth factor receptor (Homo sapiens) (UniProt Q16288). The note with it: Compound concentration 1000.0 nM.

Sequence of Sodium-dependent dopamine transporter (Q01959 whole entry): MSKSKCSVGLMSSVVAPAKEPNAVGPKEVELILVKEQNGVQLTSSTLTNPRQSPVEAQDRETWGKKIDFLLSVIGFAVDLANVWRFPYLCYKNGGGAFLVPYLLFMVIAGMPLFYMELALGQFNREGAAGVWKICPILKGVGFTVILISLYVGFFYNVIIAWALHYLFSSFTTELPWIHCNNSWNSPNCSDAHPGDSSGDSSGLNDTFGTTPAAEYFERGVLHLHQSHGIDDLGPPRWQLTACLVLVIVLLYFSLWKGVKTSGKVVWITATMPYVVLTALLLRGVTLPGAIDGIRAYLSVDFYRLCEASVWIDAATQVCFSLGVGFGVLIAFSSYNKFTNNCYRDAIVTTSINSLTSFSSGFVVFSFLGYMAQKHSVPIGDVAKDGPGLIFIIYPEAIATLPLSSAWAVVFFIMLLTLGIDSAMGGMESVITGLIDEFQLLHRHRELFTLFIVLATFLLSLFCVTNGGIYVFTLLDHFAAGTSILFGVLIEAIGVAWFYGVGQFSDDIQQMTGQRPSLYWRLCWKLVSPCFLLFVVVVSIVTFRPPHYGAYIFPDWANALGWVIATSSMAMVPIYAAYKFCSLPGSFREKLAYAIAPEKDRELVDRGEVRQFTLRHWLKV
Sequence of Beta-1 adrenergic receptor (Homo sapiens) (P08588 whole entry, looked up): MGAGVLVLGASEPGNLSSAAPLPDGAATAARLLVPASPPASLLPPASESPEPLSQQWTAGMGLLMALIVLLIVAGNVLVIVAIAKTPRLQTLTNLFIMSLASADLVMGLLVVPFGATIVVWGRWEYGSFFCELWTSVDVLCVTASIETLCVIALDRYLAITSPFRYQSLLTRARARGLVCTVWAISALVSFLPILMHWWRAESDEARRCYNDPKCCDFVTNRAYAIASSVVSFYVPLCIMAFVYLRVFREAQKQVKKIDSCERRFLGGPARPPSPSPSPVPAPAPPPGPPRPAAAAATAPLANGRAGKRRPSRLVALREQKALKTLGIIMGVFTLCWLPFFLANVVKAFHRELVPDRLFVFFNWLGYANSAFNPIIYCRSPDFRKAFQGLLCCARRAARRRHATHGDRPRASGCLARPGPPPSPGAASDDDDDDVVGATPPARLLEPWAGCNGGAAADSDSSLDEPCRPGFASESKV

Consider `CC(C)(C)OC(=O)N1CCCC1CNC1CCC(c2cc(F)ccc2F)(S(=O)(=O)c2ccc(Cl)cc2)CC1` (stereo unspecified) [GSI-NC], for which, in [1], the Ki – broadly, a dissociation constant, usually derived from enzyme kinetics or from competition with a known ligand – was found to be 10 µM and the pKi (as a rule, the Ki on a negative log10 scale, so that one unit is a factor of ten) turned out to be 5. In assay [2], the inhibition (usually the percentage by which the read-out fell short of the control) was 3.61%.

For `O=S(=O)(NC1CCC(c2cc(F)ccc2F)(S(=O)(=O)c2ccc(Cl)cc2)CC1)C(F)(F)F` (stereo unspecified) [MRK-560], the residual activity is 100% in assay [3]; 84% in assay [4]; 90% in assay [5]; 100% in assay [6]; 95% in [7]; 83% in assay [8]. The residual activity in assay [9] was 100%; in assay [10], 68%; in assay [11], 85%; in [12], 85%; in assay [13] it was 100%; in [14], 86%. Besides, the residual activity in [15] is 80%; in [16] it was 100%; in [17], 100%; in [18] it was 100%; in assay [19], 92%; in [20], 95%. The residual activity was 86% in assay [21]; 98% in assay [22]; 71% in [23]; 69% in assay [24]; 76% in assay [25]; 100% in assay [26]. For the same compound, the residual activity was 97% in [27]; 100% in [28]; 98% in [29]; 91% in assay [30]; 75% in assay [31]; 93% in [32]. Further, the residual activity in assay [33] is 80%; in assay [34], 95%; in [35] it was 100%; in [36], 100%; in assay [37], 91%; in assay [38], 71%. Besides, the residual activity in [39] is 100%; in assay [40], 75%; in [41] it was 76%; in assay [42], 100%; in assay [43], 76%; in assay [44], 83%. In addition, the residual activity in [45] is 91%.
